From PubChem BioAssay (NCI) come the findings set out here.

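Compound exposure: 48 hours, 5 concentrations, 96-well plates. Abbreviation: GI50, concentration required for 50% inhibition of growth. TGI is the concentration that stops growth completely.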 Some results are limits rather than exact numbers.

Some test systems named below: OVCAR-8 ovarian; SW-620 colon; ACHN renal; SF-539 CNS; SN12C renal; MOLT-4 leukemia; SNB-75 CNS; M14 melanoma.
What all share (assay): DTP human tumour cell line panel, 48 h

With `OCCN1CCN2C=C(C3CCCC4N(CCO)CCN34)CCC21` (configuration not stated), the total growth inhibition concentration (TGI) with OVCAR-8 ovarian is greater than 100 µM; in the experiment with SW-620 colon it was greater than 67.9 µM; with ACHN renal, greater than 100 µM; in the experiment with SF-539 CNS, greater than 92.2 µM; in the experiment with SN12C renal it was greater than 100 µM; in the experiment with MOLT-4 leukemia it was 53.6 µM. Besides, the TGI in the experiment on SNB-75 CNS and with M14 melanoma was greater than 100 µM throughout.

With `NN1C(=O)C(CCO)S/C1=N/N=C1/SC(CCO)C(=O)N1N` (configuration not stated), the total growth inhibition concentration (TGI) in the experiment with OVCAR-8 ovarian, in the experiment on SW-620 colon, with ACHN renal, with SF-539 CNS, in the experiment with SN12C renal and in the experiment on MOLT-4 leukemia was greater than 100 µM throughout. The TGI with SNB-75 CNS and with M14 melanoma was greater than 100 µM each time.

Turning to `N/N=c1\c2ccccc2c2cc3c(cc12)/c(=N/N)c1ccccc13`, the concentration for total growth inhibition (TGI) in the experiment on OVCAR-8 ovarian, in the experiment with SW-620 colon, with ACHN renal, with SF-539 CNS, in the experiment on SN12C renal and with MOLT-4 leukemia was greater than 100 µM each time. Further, the TGI with SNB-75 CNS and with M14 melanoma was greater than 100 µM throughout.

With `CC#CC1C2CCCC1(CSc1ccccc1)NC(=O)O2` (configuration not stated), the concentration for total growth inhibition (TGI) in the experiment with OVCAR-8 ovarian, in the experiment on SW-620 colon, in the experiment on ACHN renal, in the experiment with SF-539 CNS, with SN12C renal and in the experiment on MOLT-4 leukemia was greater than 100 µM each time. For the same molecule, the concentration for total growth inhibition (TGI) in the experiment with SNB-75 CNS and with M14 melanoma was greater than 100 µM each time.

Turning to `CC(=O)[CH-]C(=O)c1ccccc1.CC(=O)[CH-]C(=O)c1ccccc1.C[C@]12CCC(=O)C=C1CC[C@@H]1C2CC[C@@]2(C)C1CC[C@@H]2[O-].C[C@]12CCC(=O)C=C1CC[C@@H]1C2CC[C@@]2(C)C1CC[C@@H]2[O-].Cl.[Ti+4]` (some centres not stated), the GI50 in the experiment on OVCAR-8 ovarian is 22.6 µM; in the experiment on SW-620 colon, 17.5 µM; in the experiment with ACHN renal, 17.2 µM; in the experiment on SN12C renal it was 20.8 µM; in the experiment on MOLT-4 leukemia it was 35.3 µM; in the experiment with M14 melanoma, 15.9 µM. The TGI is 93.6 µM with OVCAR-8 ovarian; 43.7 µM in the experiment with SW-620 colon; 49.5 µM in the experiment on ACHN renal; 70.6 µM in the experiment with SN12C renal; greater than 100 µM in the experiment with MOLT-4 leukemia; 41.8 µM in the experiment on M14 melanoma.

On to `c1ccc2c(c1)N=C(c1cccc3ccccc13)CC(c1ccc3c(c1)OCO3)S2` (configuration not stated), for which the TGI with OVCAR-8 ovarian, with SW-620 colon, with ACHN renal, in the experiment with SF-539 CNS, in the experiment with SN12C renal and with MOLT-4 leukemia was greater than 100 µM each time. Besides, the TGI in the experiment on SNB-75 CNS and in the experiment with M14 melanoma was greater than 100 µM in each case.

In the case of `O=C(/C(=C\c1ccc(Cl)cc1)c1ccccc1)c1ccccc1`, the TGI in the experiment on OVCAR-8 ovarian, in the experiment with SW-620 colon, with ACHN renal, in the experiment with SF-539 CNS, in the experiment with SN12C renal and in the experiment on MOLT-4 leukemia was greater than 100 µM each time. Also, the TGI with SNB-75 CNS and in the experiment on M14 melanoma was greater than 100 µM in each case.

Take `CC(C)NC(=O)CCN(C(=O)O)S(=O)(=O)c1ccc(NC(=O)c2ccccc2)cc1`: the TGI with OVCAR-8 ovarian was greater than 94.7 µM; in the experiment with SW-620 colon it was greater than 52.4 µM; with ACHN renal, greater than 100 µM; in the experiment on SF-539 CNS, 67.5 µM; in the experiment on SN12C renal it was greater than 100 µM; with MOLT-4 leukemia, greater than 57.9 µM. Further, the TGI in the experiment on SNB-75 CNS and with M14 melanoma was greater than 100 µM throughout.

Regarding `Cc1ccc(NC(=O)/C(Cl)=C(/Cl)C(=O)O)cc1`, the TGI was 29.9 µM in the experiment with SW-620 colon; 30.1 µM in the experiment with ACHN renal; 32.5 µM in the experiment with SN12C renal; 43.5 µM in the experiment on MOLT-4 leukemia; 34.1 µM in the experiment on SNB-75 CNS; 28.7 µM in the experiment on M14 melanoma.

`Cc1ccc(S(=O)OCC23CC4CC(CC(C4)C2)C3)cc1` (configuration not stated): the TGI in the experiment on OVCAR-8 ovarian, in the experiment on SW-620 colon, with ACHN renal, in the experiment on SF-539 CNS, in the experiment on SN12C renal and in the experiment on MOLT-4 leukemia was greater than 100 µM in each case. The total growth inhibition concentration (TGI) in the experiment with SNB-75 CNS and with M14 melanoma was greater than 100 µM throughout.

Turning to `O=C(COC(=O)c1cccc2c(=O)c3ccccc3[nH]c12)Nc1ccc(C(=O)O)cc1`, the total growth inhibition concentration (TGI) in the experiment on OVCAR-8 ovarian, in the experiment with SW-620 colon, in the experiment on ACHN renal, in the experiment with SF-539 CNS, in the experiment with SN12C renal and with MOLT-4 leukemia was greater than 100 µM in each case. The concentration for total growth inhibition (TGI) in the experiment on SNB-75 CNS and in the experiment with M14 melanoma was greater than 100 µM in each case.

On to `NCCNCc1c2ccccc2c(CNCCN)c2ccccc12`, for which the total growth inhibition concentration (TGI) with OVCAR-8 ovarian was 60.3 µM; in the experiment with SW-620 colon it was greater than 100 µM; in the experiment with ACHN renal, greater than 100 µM; in the experiment on SF-539 CNS it was 29.5 µM; in the experiment on SN12C renal, 58.9 µM; with MOLT-4 leukemia, 30.9 µM. Also, the TGI with M14 melanoma was found to be 35.2 µM.

With `Cc1cc(C)nc(NS(=O)(=O)c2ccc(Nc3c4ccc(Cl)cc4nc4c(C(=O)NCCN(C)C)cccc34)cc2)n1`, the TGI in the experiment with OVCAR-8 ovarian, with SW-620 colon, with ACHN renal, in the experiment with SF-539 CNS, in the experiment with SN12C renal and in the experiment on MOLT-4 leukemia was greater than 100 µM in each case. In addition, the TGI with SNB-75 CNS and with M14 melanoma was greater than 100 µM throughout.

`COC(=O)C(Cc1nc2ccccc2nc1C)/C(=N\NC(N)=O)C(=O)Nc1cccc([N+](=O)[O-])c1` (configuration not stated): the total growth inhibition concentration (TGI) in the experiment with OVCAR-8 ovarian, with SW-620 colon, with ACHN renal, in the experiment on SF-539 CNS, with SN12C renal and in the experiment on MOLT-4 leukemia was greater than 100 µM throughout. In addition, the concentration for total growth inhibition (TGI) in the experiment on SNB-75 CNS and in the experiment with M14 melanoma was greater than 100 µM in each case.

In the case of `COc1ccccc1NC(=O)c1nc2ccc([N+](=O)[O-])cc2nc1C`, the TGI in the experiment with OVCAR-8 ovarian, with SW-620 colon, in the experiment with ACHN renal, with SF-539 CNS, with SN12C renal and in the experiment on MOLT-4 leukemia was greater than 100 µM throughout. The total growth inhibition concentration (TGI) in the experiment with SNB-75 CNS and with M14 melanoma was greater than 100 µM throughout.

Consider `CCNC(=O)O/N=C1\CCC2[C@@H]3CC=C4C[C@@H](OC5CCCCO5)CC[C@]4(C)C3CC[C@]12C` (some centres not stated), for which the concentration for total growth inhibition (TGI) with OVCAR-8 ovarian was 18.2 µM; with SW-620 colon, 6.04 µM; in the experiment on ACHN renal it was 2.81 µM; with SF-539 CNS it was greater than 100 µM; in the experiment on SN12C renal, 6.07 µM; in the experiment with MOLT-4 leukemia, 3.87 µM.

In the case of `Clc1ccc(-c2c(C3=NCCCN3)nnn2-c2ccccc2)cc1`, the TGI was greater than 100 µM with OVCAR-8 ovarian; 46.7 µM in the experiment with SW-620 colon; greater than 100 µM with ACHN renal; greater than 100 µM in the experiment with SF-539 CNS; greater than 100 µM in the experiment on SN12C renal; greater than 100 µM with MOLT-4 leukemia. Besides, the TGI with SNB-75 CNS and with M14 melanoma was greater than 100 µM throughout.

Consider `C=C[C@]1(C)CCC2=C(CCC3C2(C)CCC[C@@]3(C)COC(C)=O)C1` (some centres not stated), for which the total growth inhibition concentration (TGI) in the experiment with OVCAR-8 ovarian is 34.6 µM; in the experiment on SW-620 colon, 35.5 µM; in the experiment on ACHN renal, 38.7 µM; in the experiment with SF-539 CNS, 37.9 µM; with SN12C renal, 31.4 µM; in the experiment on MOLT-4 leukemia, 30.3 µM. Further, the TGI in the experiment on SNB-75 CNS came out at 36.7 µM; in the experiment on M14 melanoma, 40.3 µM.

Regarding `O=C1CCSC2=C1SCc1sccc12`, the concentration for total growth inhibition (TGI) in the experiment on OVCAR-8 ovarian, in the experiment with SW-620 colon, in the experiment with SN12C renal, in the experiment on MOLT-4 leukemia, in the experiment with SNB-75 CNS and with M14 melanoma was greater than 100 µM in each case.

For the molecule `COc1ccc2nc3cc(Cl)ccc3c(Sc3ccc([N+](=O)[O-])cc3)c2c1`, the GI50 is greater than 100 µM in the experiment on OVCAR-8 ovarian; greater than 100 µM with SW-620 colon; greater than 100 µM in the experiment with SN12C renal; greater than 100 µM in the experiment with MOLT-4 leukemia; greater than 10 µM in the experiment with SNB-75 CNS; greater than 100 µM with M14 melanoma. In addition, the TGI in the experiment with OVCAR-8 ovarian was greater than 100 µM; in the experiment on SW-620 colon, greater than 100 µM; with ACHN renal, greater than 10 µM; with SF-539 CNS, greater than 10 µM; in the experiment with SN12C renal, greater than 100 µM; in the experiment on MOLT-4 leukemia it was greater than 100 µM. The TGI in the experiment on SNB-75 CNS and with M14 melanoma was greater than 100 µM in each case.

With `C=C(C(=C)P(=S)(c1ccccc1)c1ccccc1)P(=S)(c1ccccc1)c1ccccc1`, the TGI in the experiment with OVCAR-8 ovarian, in the experiment on SW-620 colon, in the experiment with ACHN renal, with SF-539 CNS, in the experiment with SN12C renal and in the experiment on MOLT-4 leukemia was greater than 100 µM throughout. Besides, the TGI in the experiment on SNB-75 CNS and in the experiment on M14 melanoma was greater than 100 µM throughout.

Consider `Nc1cc(=O)n(-c2ccccc2)c(=S)n1-c1ccccc1`, for which the TGI in the experiment with OVCAR-8 ovarian, with SW-620 colon, in the experiment on ACHN renal, with SF-539 CNS, with SN12C renal and in the experiment on MOLT-4 leukemia was greater than 100 µM in each case. The TGI with SNB-75 CNS and with M14 melanoma was greater than 100 µM in each case.

Regarding `COc1ccc(C(=O)C(c2ccc(OCc3ccccc3)cc2)c2ccc(OCc3ccccc3)cc2)cc1`, the TGI in the experiment with OVCAR-8 ovarian, in the experiment on SW-620 colon, in the experiment on ACHN renal, in the experiment on SF-539 CNS, with SN12C renal and in the experiment with MOLT-4 leukemia was greater than 100 µM each time. In addition, the TGI in the experiment on SNB-75 CNS and with M14 melanoma was greater than 100 µM throughout.

The term TGI denotes the concentration at which net growth stops. Lower therefore signals more potent growth arrest. What is called GI50 is the concentration giving 50% growth inhibition.
